From patent US20070117743A1, “New antitumoral compounds” (priority 2003, published 2007)

Key:
Type in all cases: cell-based, human
DU-145 = experiment: SRB colorimetric assay of cell growth and viability, DU-145; conditions: 48 hours exposure
[1] = SRB colorimetric assay of cell growth and viability, HMEC-1; conditions: human, HMEC-1 cells; 48 hours exposure; read-out: LC50 H-MEC-1
From the text: (§1) The finality of this assay is to interrupt the growth of a “in vitro” tumor cell culture by means a continued exhibition of the cells to the sample to be testing.
(§2) A colorimetric type of assay, using sulforhodamine B (SRB) reaction has been adapted for a quantitative measurement of cell growth and viability [following the technique described by Philip Skehan, et al. (1990), New colorimetric cytotoxicity assay for anticancer drug screening, J. Natl. Cancer Inst., 82:1107-1112].
(§3) This form of the assay employs 96 well cell culture microplates of 9 mm diameter (Faircloth, 1988; Mosmann, 1983). Most of the cell lines are obtained from American Type Culture Collection (ATCC) derived from different human cancer types.
(§4) Cells are maintained in RPMI 1640 10% FBS, supplemented with 0.1 g/l penicillin and 0.1 g/l streptomycin sulfate and then incubated at 37° C., 5% CO2 and 98% humidity. For the experiments, cells were harvested from subconfluent cultures using trypsin and resuspended in fresh medium before plating.
(§5) Cells are seeded in 96 well microtiter plates, at 5×10^3 cells per well in aliquots of 195 μL medium, and they are allowed to attach to the plate surface by growing in drug free medium for 18 hours. Afterward, samples are added in aliquots of 5 μL in a ranging from 10 to 10^−8 μg/mL, dissolved in DMSO:EtOH:PBS (0.5:0.5:99). After 48 hours exposure, the antitumor effect are measured by the SRB methodology: cells are fixed by adding 50 μL of cold 50% (wt/vol) trichloroacetic acid (TCA) and incubating for 60 minutes at 4° C. Plates are washed with deionized water and dried. One hundred μL of SRB solution (0.4% wt/vol in 1% acetic acid) is added to each microtiter well and incubated for 10 minutes at room temperature. […] Optical densities are read on a automated spectrophotometric plate reader at a single wavelength of 490 nm.
(§6) The values for mean+/− SD of data from triplicate wells are calculated. Some parameters for cellular responses can be calculated: GI=growth inhibition, TGI=total growth inhibition (cytostatic effect) and LC=cell killing (cytotoxic effect).

HMEC-1 = experiment: as above; conditions: 48 hours exposure
From the text: as §1, §2, §3, §4, §5, §6

A-549 = experiment: SRB colorimetric assay of cell growth and viability, A-549; conditions: 48 hours exposure
LoVo = experiment: SRB colorimetric assay of cell growth and viability, LoVo; conditions: 48 hours exposure
IGROV-ET = experiment: SRB colorimetric assay of cell growth and viability, IGROV-ET; conditions: 48 hours exposure
LoVo-Dox = experiment: SRB colorimetric assay of cell growth and viability, LoVo-Dox; conditions: 48 hours exposure
In short: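 Human tumor cells seeded at 5×10^3/well in RPMI 1640 10% FBS, attached 18 hours, then exposed 48 hours to compound (10 to 10^−8 μg/mL). TCA-fixed, SRB-stained, OD 490 nm; triplicates give GI, TGI and LC values.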

LNCaP = experiment: SRB colorimetric assay of cell growth and viability, LNCaP; conditions: 48 hours exposure
HT-29 = experiment: SRB colorimetric assay of cell growth and viability, HT-29; conditions: 48 hours exposure
IGROV-1 = experiment: SRB colorimetric assay of cell growth and viability, IGROV-1; conditions: 48 hours exposure
K-562 = experiment: SRB colorimetric assay of cell growth and viability, K-562; conditions: 48 hours exposure
PANC-1 = experiment: SRB colorimetric assay of cell growth and viability, PANC-1; conditions: 48 hours exposure
SK-BR-3 = experiment: SRB colorimetric assay of cell growth and viability, SK-BR-3; conditions: 48 hours exposure
SK-OV-3 = experiment: SRB colorimetric assay of cell growth and viability, SK-OV-3; conditions: 48 hours exposure
From the text: as §1, §2, §3, §4
Cells are seeded in 96 well microtiter plates, at 5×10^3 cells per well in aliquots of 195 μL medium, and they are allowed to attach to the plate surface by growing in drug free medium for 18 hours. Afterward, samples are added in aliquots of 5 μL in a ranging from 10 to 10^−8 μg/mL, dissolved in DMSO:EtOH:PBS (0.5:0.5:99). After 48 hours exposure, the antitumor effect are measured by the SRB methodology: cells are fixed by adding 50 μL of cold 50% (wt/vol) trichloroacetic acid (TCA) and incubating for 60 minutes at 4° C. Plates are washed with deionized water and dried. One hundred μL of SRB solution (0.4% wt/vol in 1% acetic acid) is added to each microtiter well and incubated for 10 minutes at room temperature. Unbound SRB is removed by washing with 1% acetic acid. Plates are air dried and bound stain is solubilized with Tris buffer. Optical densities are read on a automated spectrophotometric plate reader at a single wavelength of 490 nm.
as §6

SK-MEL-28 = experiment: SRB colorimetric assay of cell growth and viability, SK-MEL-28; conditions: 48 hours exposure

Structure (SMILES): C/C=C1\NC(=O)[C@H](Cc2ccccc2)NC(=O)[C@@H](C(C)C)NC(=O)[C@@H]([C@@H](C)CC)NC(=O)[C@H](NC(=O)[C@H](NC(=O)[C@H](CCCCN)NC(=O)[C@H]2CCCN2C(=O)[C@H](NC(=O)[C@@H](NC(=O)[C@@H](NC(=O)[C@H](NC(=O)CCCC(C)C)C(C)C)[C@@H](C)O)C(C)C)C(C)C)[C@@H](C)CC)[C@@H](C)OC(=O)[C@H](C(C)C)NC1=O [Compound 5, [Lys^8]-KF]
- GI50 (DU-145): 0.0181 µM
- LC50 (concentration causing 50% net cell kill) (DU-145): 0.0569 µM
- TGI DU-145 (DU-145): 3.20E−08 Molar
- CC50 at 48 h [1]: 0.0446 µM
- TGI H-MEC-1 (HMEC-1): 2.63E−08 Molar
- GI50 (HMEC-1; read-out: GI50 H-MEC-1): 0.0156 µM
- TGI A-549 (A-549): 2.75E−07 Molar
- GI50 (A-549; read-out: GI50 A-549): 0.129 µM
- CC50 (A-549; read-out: LC50 A-549): 0.582 µM
- GI50 (LoVo): 0.155 µM
- TGI LOVO (LoVo): 2.71E−07 Molar
- CC50 (LoVo; read-out: LC50 LOVO): 0.478 µM
- GI50 (IGROV-ET): 0.24 µM
- TGI IGROV-ET (IGROV-ET): 4.88E−07 Molar
- CC50 (IGROV-ET; read-out: LC50 IGROV-ET): 2.83 µM
- GI50 (LoVo-Dox): 0.162 µM
- TGI LOVO-DOX (LoVo-Dox): 2.98E−07 Molar
- CC50 (LoVo-Dox; read-out: LC50 LOVO-DOX): 0.552 µM
- TGI LN-caP (LNCaP): 2.61E−08 Molar
- GI50 (LNCaP; read-out: GI50 LN-caP): 0.0142 µM
- CC50 (LNCaP; read-out: LC50 LN-caP): 0.0479 µM
- TGI HT-29 (HT-29): 2.81E−07 Molar
- GI50 (HT-29; read-out: GI50 HT-29): 0.158 µM
- CC50 (HT-29; read-out: LC50 HT-29): 0.498 µM
- GI50 (IGROV-1): 0.183 µM
- LC50 (concentration causing 50% net cell killing) (IGROV-1): 1.23 µM
- TGI IGROV (IGROV-1): 3.71E−07 Molar
- GI50 (K-562): 0.771 µM
- TGI K-562 (K-562): 1.65E−06 Molar
- CC50 (K-562; read-out: LC50 K-562): 3.55 µM
- GI50 (PANC-1): 1.14 µM
- TGI PANC-1 (PANC-1): 2.37E−06 Molar
- CC50 (PANC-1; read-out: LC50 PANC-1): 4.92 µM
- GI50 (SK-BR-3): 0.169 µM
- LC50 (SK-BR-3): 0.554 µM
- TGI SK-BR-3 (SK-BR-3): 3.06E−07 Molar
- TGI SKOV-3 (SK-OV-3): 4.08E−07 Molar
- GI50 (SK-OV-3; read-out: GI50 SKOV-3): 0.196 µM
- CC50 (SK-OV-3; read-out: LC50 SKOV-3): 1.49 µM
- GI50 (SK-MEL-28): 0.811 µM
- TGI MEL-28 (SK-MEL-28): 1.87E−06 Molar
- CC50 (SK-MEL-28; read-out: LC50 MEL-28): 4.3 µM
